Results reported in patent publication US20260165968A1, “SUSTAINED-RELEASE PLGA MICROSPHERE CONTAINING GS-441524, AND METHOD FOR PRODUCING SAME” (THE INDUSTRY & ACADEMIC COOPERATION IN CHUNGNAM NATIONAL …, priority 2022, published 2026).
Like-named read-outs stand apart in the source and are kept apart here.

Tests used:
[1] = Pharmacokinetic evaluation after subcutaneous injection into rats; type: in vivo
Procedure: The pharmacokinetic evaluation of the GS-441524-containing PLGA microspheres of Example F3 according to the disclosure was carried out. Rats as test animals were randomly divided into test and control groups, with 5 animals in each group, and raised under the same conditions while predetermined amounts of solid food and water were supplied for 7 days. The rats were fasted for 12 hours before testing, and then used for testing.
The test group was subcutaneously administered GS-441524 at a dose corresponding to 28 mg/kg by using the PLGA microspheres of Example F3 of the disclosure, and the control group was subcutaneously administered 28 mg/kg GS-441524 alone. Approximately 300 μL of blood was collected by retro-orbital bleeding 1, 2, 4, 8, 12, 24, 48, 72, 96, 120, and 144 hours after the subcutaneous injection to the rats. Each of the obtained samples was centrifuged at 15,000 rpm for 5 minutes to separate the plasma, and then stored at −70° C. before analysis.
Plasma sample pre-treatment was performed using a deproteination method. After 100 μL of a plasma sample was taken, 200 μL of methanol (the internal standard substance 10 ng/MI verapamil) was added thereto, followed by mixing for 10 minutes and then extraction. The extract was centrifuged at 17,000 rpm for 10 minutes, and then the supernatant was collected and analyzed using LC-MS/MS to quantify GS-441524 in the blood.

[2] = in humans; cited from earlier work
[3] = rat, plasma, sc, 28 mg/kg GS-441524

## N#C[C@@]1(c2ccc3c(N)ncnn23)O[C@H](CO)[C@@H](O)[C@H]1O [GS-441524, (2R,3R,4S,5R)-2-(4-aminopyrrolo[2,1-f][1,2,4]triazin-7-yl)-3,4-dihydroxy-5-(hydroxymethyl) oxolane-2-carbonitrile]
[1]; 28 mg/kg GS-441524
  Cl: 17.32 ± 9.32 mL/min/kg
  Vz: 81.261 ± 84.077 L/kg
[1]; [3]
  Cmax: 8170 ± 4080 ng/mL
  half-life: 61.5 ± 66.2 h
[1]; rat, plasma, sc, 28 mg/kg GS-441524, read-out: AUC0→144
  AUC(0-t): 31600 ± 14300 ng·h/mL
[2]
  half-life: about 24 hours
